Experiments:
[1] = molecular target: T1, human GPR139 receptor (Homo sapiens, UniProt Q6DWJ6); assay: GPR139 Competition Binding (membrane-based, tritium-labeled ligand); conditions: T-REx-CHO membranes with human GPR139; 6.5 nM tritium-labeled ligand; 11-point curve, 30 μM maximum concentration; read-out: GPR139 Binding Affinity (pKi) (converted)
T1 construct: expressed in transfected cells; host or cells: T-REx-CHO (Thermo Fisher Scientific), doxycycline-induced
T1 sequence (Q6DWJ6 1-353): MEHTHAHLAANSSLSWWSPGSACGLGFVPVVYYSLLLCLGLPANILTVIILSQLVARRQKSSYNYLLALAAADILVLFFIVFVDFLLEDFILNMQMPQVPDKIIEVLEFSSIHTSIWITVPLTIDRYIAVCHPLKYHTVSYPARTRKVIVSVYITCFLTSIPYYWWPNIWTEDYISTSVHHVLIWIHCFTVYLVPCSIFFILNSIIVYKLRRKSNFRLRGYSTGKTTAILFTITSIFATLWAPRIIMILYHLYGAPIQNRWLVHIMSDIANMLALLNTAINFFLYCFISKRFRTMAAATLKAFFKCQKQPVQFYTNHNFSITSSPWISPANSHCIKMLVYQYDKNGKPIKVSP
Outline: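 Membranes came from doxycycline-induced T-REx-CHO cells expressing human GPR139. They were incubated 20 min at room temperature with 6.5 nM tritiated ligand and compound (11 points, top 30 μM) in HEPES pH 7.3 buffer with MgCl2/CaCl2. Filter-bound counts gave Ki by four-parameter fit, reported as pKi.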

[2] = molecular target: T1, human GPR139 receptor; assay: Measurement of GPR139 Activation Via Calcium Signaling (FLIPR, T-REx-CHO cells); type: cell-based; conditions: T-REx-CHO cells stably expressing human GPR139, 11-point dose response, 10 μM maximum concentration, read-out: GPR139 Potency (pEC50) (converted)
Outline: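 Calcium flux read by FLIPR for 1 min after adding compounds (11 concentrations, maximum 10 μM) to doxycycline-induced (2 μg/mL, 17 h) T-REx-CHO cells expressing human GPR139. Cells dye-loaded 40 min at 37 °C in HBSS, 1 mM HEPES pH 7.4 with probenecid; activation reported as pEC50 from four-parameter logistic fit.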

Ki [1]: 955 nM
EC50 [2]: 324 nM
SMILES: Cc1nn(C)c2cnn(CC(=O)N[C@@H](C)c3c(F)cccc3F)c(=O)c12 [Example 126, (S)—N-(1-(2,6-difluorophenyl)ethyl)-2-(1,3-dimethyl-4-oxo-1,4-dihydro-5H-pyrazolo[3,4-d]pyridazin-5-yl)acetamide]

— patent US12370192B2, “Azole-fused pyridazin-3(2H)-one derivatives” (TAKEDA PHARMACEUTICAL COMPANY LIMITED, priority 2019, dated 2025)
